Data as given in patent US20210379106A1, “OXABICYCLOHEPTANES FOR ENHANCING CAR T CELL FUNCTION” (Lixte Biotechnology, Inc., priority 2018, published 2021).

How the values were obtained:
PP2A = PP2A (Homo sapiens, UniProt P67775); details: cited from earlier work
solid tumor = details: largest phase 1 trial, cited from earlier work
[1] = test system: cell lines from a variety of human solid tumors; details: cited from earlier work
CD19 CAR T cells = assay: IFNγ intracellular staining / flow cytometry of CD19CAR T cells after co-culture with CD19+ tumor cells; format: cell-based; details: for percentage of CAR+/CD8+/INFγ+: 0.5 μM LB-100, 1.0 μg/mL Nivo
Experimental: FIG. 1. Generation of CD19 CAR T cells PBMC from healthy donor were activated with CD3/CD28 beads and transduced with lentivirus encoding second generation of CD19CAR containing costimulatory signaling CD28. After 14 days of ex vivo expansion, percentages of CD8 and CAR positive T cells were determined by flow cytometry.
(§1) FIG. 2. […] Post treatment, 0.1×10^6 CD19 CART cells were then co-cultured with 0.1×10^6 different CD19+ tumor cells for 24 hours followed by surface staining of CAR and CD8 and intracellular staining of IFN-γ. Percentages of IFNγ+CD8+ CAR T cells in gated CAR positive population are presented.
FIG. 3. […] Post treatment, 0.1×10^6 CD19CAR T cells were then co-cultured with 0.1×10^6 CD19+Daudi lymphoma cells for 24 hours followed by surface staining of CAR and CD8 and intracellular staining of IFN-γ. Percentages of IFN-γ+CD8+ CAR T cells (A) and FACS plots (B) in gated CAR positive population are presented.
as §1, with “4.” for “2.”, “CD19CAR T” for “CD19 CART”, “IFN-γ. Myeloid leukemic cells (KG1a) were used as negative control.” for “IFN-γ.”, “IFN-γ+CD8+” for “IFNγ+CD8+”
We assessed the effects of LB-100 and Nivo on CD19 CART cell function. Propagated CD19CAR T cells were stimulated with dynal beads coated with antibody against CD19 (FMC63) at 1:1 ratio for five days and cultured under the following conditions: CD19CAR T cell alone, CD19CAR+ 0.5 μM LB-100, CD19CAR+ 1.0 μg/mL Nivo, and CD19CAR with combination of LB-100 and Nivo. Drugs were supplemented into the culture every other day. Functional assay was performed six days after treatment. The cells were then co-cultured with the different CD19+ ALL cells SupB15 and different lymphoma Daudi and Raji cells overnight. Cells were then stained for Interferon-gamma (IFNγ) followed by flow cytometry analysis. Acute myeloid leukemia (AML) cells KG1a were used as negative controls. […] To test the antitumor activity of the combinatorial therapy in vivo we established an acute lymphoid leukemia (ALL) model by inoculating SupB15-GFP-ffluc cells into NSG mice, 5 days after tumor engraftment, mice were treated with CD19CAR T cells by intravenous injection, along with intraperitoneally injections of LB100 (4 μg/mouse), Nivo (200 μgm/mouse) or LB100+Nivo every other day as combination therapy.

PP2A, sequence (P67775 whole entry): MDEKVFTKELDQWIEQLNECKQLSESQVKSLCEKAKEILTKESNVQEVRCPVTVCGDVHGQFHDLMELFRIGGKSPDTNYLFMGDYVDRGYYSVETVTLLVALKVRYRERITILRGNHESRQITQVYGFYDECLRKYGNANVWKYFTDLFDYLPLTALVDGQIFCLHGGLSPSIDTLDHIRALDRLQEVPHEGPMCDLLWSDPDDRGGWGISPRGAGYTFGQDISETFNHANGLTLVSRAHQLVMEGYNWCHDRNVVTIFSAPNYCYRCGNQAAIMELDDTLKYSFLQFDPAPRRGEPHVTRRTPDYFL

O=C1OC(=O)[C@H]2[C@@H]1[C@@H]1CC[C@H]2O1 [norcantharidin]
inhibition of PP2A (PP2A): potent inhibitorsof PP2A

C[C@@](O)(/C=C/[C@H]1CC=CC(=O)O1)[C@@H](C[C@@H](O)\C=C/C=C\C=C\CO)OP(=O)(O)O [fostriecin, Fostriecin]
dose-limiting toxicity (DLT) (solid tumor; 46 solid tumor patients): without dose-limiting toxicity | disease stability, share of solid tumor patients (solid tumor; 16 of 46 patients): 34.8%

CCN1CCCC1CNC(=O)c1cc(S(=O)(=O)CC)c(NC)cc1OC (stereo not shown) [LB-102]
proliferation of cell lines [1]: inhibit proliferation

C[C@@]12C(=O)OC(=O)[C@]1(C)[C@H]1CC[C@@H]2O1 [Cantharidin]
inhibition of PP2A (PP2A): potent inhibitor of PP2A

CN1CCN(C(=O)C2C(C(=O)O)[C@H]3CC[C@@H]2O3)CC1 (stereo partly shown) [LB-100]
effector function of CD19CAR T cells (IFNγ+CD8+ CAR T cells) (CD19 CAR T cells; FIG. 2, CD19 antibody coated beads, different concentrations of LB100 on days 1, 3 and 5, different CD19+ tumor cells 24 hours): improves effector function of CD19CAR T cells in a dose dependent manner | percentage of CAR+/CD8+/INFγ+ (CD19 CAR T cells; co-cultured with Daudi cells overnight, CD19 antibody bead stimulation): 10.99% | percentage of CAR+/CD8+/INFγ+ (CD19 CAR T cells; co-cultured with Raji cells overnight, CD19 antibody bead stimulation): 10.30% | percentage of CAR+/CD8+/INFγ+ (CD19 CAR T cells; co-cultured with SupB15 cells overnight, CD19 antibody bead stimulation): 10.14% | percentage of CAR+/CD8+/INFγ+ (CD19 CAR T cells; corresponding treatment, co-cultured with KG1A AML cells (negative control)): 6.33% | percentage of CAR+/CD8+/INFγ+ (CD19 CAR T cells; corresponding treatment, media alone (no tumor cells)): 7.28% | inhibition of PP2A (PP2A): potent inhibitor of PP2A | proliferation of cell lines [1]: inhibit proliferation
